Results taken from US9066516B2, “Uses of thaxtomin and thaxtomin compositions as herbicides” (priority 2008, dated 2015).

How the values were obtained:
Format in all cases: in vivo
grass species = test: Greenhouse test on grass species (Example 4); details: 0.5 or 1.0 mg/mL thaxtomin A
Method: A strain of S. acidiscabies (ATCC-49003) is grown in oat bran broth for 5 days (25° C., 200 rpm). The whole cell broth with thaxtomin A is extracted using XAD resin. The dried crude extract was resuspended in 4% ethanol and 0.02% non-ionic surfactant at a concentration of 10 mg/mL, and the solutions with two different concentrations of thaxtomin A (0.5 and 1.0 mg/mL) are tested the following broadleaf weed species:
and on the following grass weed species:
All plant species are tested in 4″×4″ plastic pots in three replicates. The untreated control plants are sprayed with the carrier solution (4% Ethanol, 0.02% glycosperse) and the positive control plants with Roundup at a rate corresponding to 1 fl. oz/acre. Treated plants are kept in a greenhouse under 12 h light/12 h dark conditions.

redstem; Ammania spp. = test: Greenhouse study thaxtomin A / sarmentine (Example 9); details: 25 days after treatment
Method: (§1) A strain of S. acidiscabies was grown in oat bran broth for 5 days (25° C., 200 rpm). The whole cell broth was extracted using XAD resin, and the dried crude extract was resuspended in 4% ethanol and 0.2% non-ionic surfactant at a concentration of 10 mg/mL. The diluted extracts containing 0.2 and 0.4 mg thaxtomin A per mL were tested on three weed species (redstem; Ammania spp., smallflower umbrella sedge; Cyperus difformis and sprangletop: Leptochloa uninervia). Other treatments included sarmentine at 2.5 and 5.0 mg/mL, and a combination treatment containing 0.2 mg thaxtomin A and 2.5 mg sarmentine per mL. Each treatment was applied in three replicates. Treated plants were kept in a greenhouse under 12 h light/12 h dark conditions.

[1] = test system: smallflower umbrella sedge; Cyperus difformis; test: as above; details: Thaxtomin A 0.2 mg/mL; 25 days after treatment
Method: as §1

[2] = test system: sprangletop: Leptochloa uninervia; test: as above; details: Thaxtomin A 0.2 mg/mL; 25 days after treatment
Method: as §1

[3] = test system: Bearded Sprangletop (Leptochloa fascicularis); test: Pre-emergence test of MBI-005, lab (Example 12); details: pre-emergent; also: ranges in brackets are in %
Method: (§2) To further describe the spectrum of pre-emergence activity, tests were conducted in laboratory and field conditions. In laboratory testing, 35 seeds were placed on a ring of blotter paper inside a 3 cm petri dish and supplied with 4 ml of MBI-005 (≦0.1 mg MBI-005/ml). Water was used as a negative control and oryzalin applied as a positive control. Petri dishes were randomly placed in a growth room at 25° C. and 50% RH. Treatments were replicated three times and germinated seeds were counted 7 and 14 days after application; water was added as necessary to maintain moisture levels inside each petri dish.

[4] = test system: Black nightshade (Solanum nigrum); test: Pre-emergence test of MBI-005, lab (Example 12); details: pre-emergent; also: ranges in brackets are in %
Method: as §2

[5] = test system: Bristlegrass/Foxtail (Setaria viridis); test: Pre-emergence test of MBI-005, lab (Example 12); details: pre-emergent; also: ranges in brackets are in %
Method: as §2

[6] = test system: Buckhorn plantain (Plantago lanceolata); test: Pre-emergence test of MBI-005, lab (Example 12); details: pre-emergent; also: ranges in brackets are in %
Method: as §2

[7] = test system: Canarygrass (Phalaris minior); test: Pre-emergence test of MBI-005, lab (Example 12); details: pre-emergent; also: ranges in brackets are in %
Method: as §2

[8] = test system: Clover (Trifolium repens); test: Pre-emergence test of MBI-005, lab (Example 12); details: pre-emergent; also: ranges in brackets are in %
Method: as §2

[9] = test system: Fall Panicum (Panicum dichotomiflorum); test: Pre-emergence test of MBI-005, lab (Example 12); details: pre-emergent; also: ranges in brackets are in %
Method: as §2

[10] = test system: Horseweed (R) (Conyza canadensis); test: Pre-emergence test of MBI-005, lab (Example 12); details: pre-emergent, herbicide resistant population; also: ranges in brackets are in %
Method: as §2

[11] = test system: Mustard (Brassica juncea); test: Pre-emergence test of MBI-005, lab (Example 12); details: pre-emergent
Method: as §2

[12] = test system: Ragweed (Ambrosia artemisifolia); test: Pre-emergence test of MBI-005, lab (Example 12); details: pre-emergent; also: ranges in brackets are in %
Method: as §2

[13] = test system: Ryegrass (Lolium perenne); test: Pre-emergence test of MBI-005, lab (Example 12); details: pre-emergent; also: ranges in brackets are in %
Method: as §2

[14] = test system: Arrowhead (Sagittaria montevidensis); test: Post-emergence test of MBI-005, field (Example 13)
Method: (§3) In field testing, field soil containing weeds at the 1-5 leaf stage were treated with 38.2 L MBI-005/ha at a spray volume of 374 L/ha. Treatments, including water as the negative control and WeedBGon or Preen Broadleaf as the positive control, were replicated four times and applied twice at a four week interval. The positive control on Late watergrass, Ricefield Bulrush, Smallflower sedge and Arrowhead was an herbicide containing as active ingredient 2,4-D and an organosilicone surfactant was added to MBI-005. Treatments were assessed for % control and % ground cover.

[15] = test system: Clover (Trifolium hirtum); test: Post-emergence test of MBI-005, field (Example 13)
Method: as §3

[16] = test system: Common chickweed (Stellaria media); test: Post-emergence test of MBI-005, field (Example 13)
Method: as §3

[17] = test system: Common groundsel (Senecio vulgaris); test: Post-emergence test of MBI-005, field (Example 13)
Method: as §3

[18] = test system: Common yellow oxalis (Oxalis pes-caprae); test: Post-emergence test of MBI-005, field (Example 13)
Method: as §3

[19] = test system: Flexuous bittercress (Cardamine flexuosa); test: Post-emergence test of MBI-005, field (Example 13)
Method: as §3

[20] = test system: Hairy galinsoga (Galinsoga ciliata); test: Post-emergence test of MBI-005, field (Example 13)
Method: as §3

[21] = test system: Henbit (Lamimum amplexicaule); test: Post-emergence test of MBI-005, field (Example 13)
Method: as §3

[22] = test system: Marsh watercress (Rorippa islandica); test: Post-emergence test of MBI-005, field (Example 13)
Method: as §3

[23] = test system: Nightshade, Eastern Black (Solanum ptychanthum); test: Post-emergence test of MBI-005, field (Example 13)
Method: as §3

[24] = test system: Shepherd's purse (Capsella bursa-pastoris); test: Post-emergence test of MBI-005, field (Example 13)
Method: as §3

[25] = test system: Smallflower (Cyperus difformis); test: Post-emergence test of MBI-005, field (Example 13); details: Smallflower (sedge)
Method: as §3

crabgrass = test: Post-emergent MBI-005 + Atrazine on crabgrass (Example 17); details: for AVG E (visual % damage): 7DAT; for AVG/ E (visual % damage): 14DAT
Method: Ten seedlings in 2.5 cm square pots containing plant growth mix were sprayed with two suboptimal rates of MBI-005, and 35% of the atrazine label rate (0.3 gallons/A), or a combination thereof, at a volume of 40 gal/A using a cabinet track sprayer. Negative controls were sprayed with water. Pots were randomly placed in a growth room at 25° C. and 50% RH, and watered as necessary. Treatments were replicated five times and evaluated at 7 and 14 days for visual % damage, with 0% indicating no damage and 100% indicating plant death.
Synergy was calculated as the ratio of observed (E) to expected (E/Ee) percent control using Colby's formula.

[26] = 12.5% MBI-005 Label Rate (0.125 mg/mL)
[27] = 25% MBI-005 Label Rate (0.25 mg/mL)

SMILES: CN1C(=O)[C@](O)(Cc2cccc(O)c2)N(C)C(=O)[C@@H]1Cc1c[nH]c2cccc([N+](=O)[O-])c12 [thaxtomin A]
- adverse effects on grass species (grass species): no adverse effects are observed
- Control of redstem (%) (redstem; Ammania spp.; Thaxtomin A 0.2 mg/mL): 5.0b %
- Control of redstem (%) (redstem; Ammania spp.; Thaxtomin A 0.4 mg/mL, *stunted): 11.7c* %
- Control of sedge (%) [1]: 48.3b %
- Control of sprangletop (%) [2]: 8.3ab %
- Rating at 0.1 mg/ml (Reduction of Germination) [3]: ++++ (95-100)
- Rating at 0.1 mg/ml (Reduction of Germination) [4]: ++++ (95-100)
- Rating at 0.1 mg/ml (Reduction of Germination) [5]: ++++ (95-100)
- Rating at 0.1 mg/ml (Reduction of Germination) [6]: ++++ (95-100)
- Rating at 0.1 mg/ml (Reduction of Germination) [7]: ++++ (95-100)
- Rating at 0.1 mg/ml (Reduction of Germination) [8]: ++++ (95-100)
- Rating at 0.1 mg/ml (Reduction of Germination) [9]: ++++ (95-100)
- Rating at 0.1 mg/ml (Reduction of Germination) [10]: ++++ (95-100)
- Rating at 0.1 mg/ml (Reduction of Germination) [11]: ++++ (95-100)
- Rating at 0.1 mg/ml (Reduction of Germination) [12]: ++++ (95-100)
- Rating at 0.1 mg/ml (Reduction of Germination) [13]: ++++ (95-100)
- Rating at 1 mg/ml (Post-Emergence % control) [14]: ++++ (91-100)
- Rating at 1 mg/ml (Post-Emergence % control) [15]: ++ (51-80)
- Rating at 1 mg/ml (Post-Emergence % control) [16]: ++ (51-80)
- Rating at 1 mg/ml (Post-Emergence % control) [17]: ++++ (91-100)
- Rating at 1 mg/ml (Post-Emergence % control) [18]: ++++ (91-100)
- Rating at 1 mg/ml (Post-Emergence % control) [19]: ++ (51-80)
- Rating at 1 mg/ml (Post-Emergence % control) [20]: +++ (81-90)
- Rating at 1 mg/ml (Post-Emergence % control) [21]: ++++ (91-100)
- Rating at 1 mg/ml (Post-Emergence % control) [22]: ++ (51-80)
- Rating at 1 mg/ml (Post-Emergence % control) [23]: ++ (51-80)
- Rating at 1 mg/ml (Post-Emergence % control) [24]: ++++ (91-100)
- Rating at 1 mg/ml (Post-Emergence % control) [25]: ++++ (91-100)
- AVG E (visual % damage) (crabgrass; [26]): 10.0%
- AVG E (visual % damage) (crabgrass; [27]): 11.9%
- AVG/ E (visual % damage) (crabgrass; [26]): 10.0%
- AVG/ E (visual % damage) (crabgrass; [27]): 11.9%
